Structures are written as SMILES.

Series [1] deals with HT-29 (human colon carcinoma) cell line. The series can be described thus: Viability/survival of HT-29 cells (PrestoBlue). Format: cell-based. The following applies: HT-29, 10-80 μM, 24, 48 or 72 h; vs comparative compounds, 5-fluorouridine and 5-fluorouracil. The method, then: In vitro experiments were performed using HT-29 (human colon carcinoma) cell line (DSMZ, GmbH, Braunschweig, Germany). The cells were cultured in 90% RPMI 1640 supplemented with 10% fetal bovine serum (FBS), 100 U/ml penicillin, 0.1 mg/ml streptomycin. Cells were maintained at 37° C. in a humidified atmosphere of 5% CO2 and 95% air; the medium was changed every 48 h.
1×10^4 human HT-29 in 100 μl medium/well were seeded in 96-well plates (BD Falcon™, Becton Dickinson GmbH, Heidelberg, Germany). After 24 h, the medium was changed and different concentrations of 5-fluorouracil, 5-fluorouridin and 5-fluorouridin derivative molecules (10, 20, 40 or 80 μM) were tested. After 24, 48 or 72 h incubation, viability/survival was measured using PrestoBlue™ reagent (Invitrogen-Life Technologies GmbH, Darmstadt, Germany). PrestoBlue™ reagent is more sensible than alamarBlue®, which is a redox indicator of enzyme activity widely used in whole organism screening for viability/cytotoxicity (1-6). PrestoBlue™ was directly added to the cells into the culture medium at a final concentration of 10%. Thereafter the plates were returned to the incubator. 30 min, 1 h, 2 h, 3 h and 4 h after addition of PrestoBlue™ the optical density (OD) was measured at 570 nm and 600 nm (as reference) with a SUNRISE ELISA-reader (Tecan, Salzburg, Austria). […]

Series [2] can be described thus: Acidic stability (hydrolysis) of the O-2′,3′-ketal group. Format: physicochemical. The following applies: 1N aqueous HCl/MeCN 1:1 (v/v), RP-18 HPLC, calculated graphically; read-out: half-life under acidic conditions. The method, then:
Both, the acidic hydrolysis of the O-2′,3′-ketal moiety of the ester 28a as well as the chitosanase-catalyzed degradation of chitosan foil-bound 5-fluorouridine was measured. Acidic stability was determined by incubating compound 28a (2 mg) in 1N aqueous HCl/MeCN 1:1 (v/v), neutralization by Et3N and subsequent RP-18 HPLC analysis as described above (FIG. 12).
The faster migrating zone contains always pure 5-fluorouridine, the slower migrating zone the residual ketal 28a. The half-life value was calculated graphically from a plot of the peak integral of both, the residual ketals and 5-fluorouridine vs. reaction time (FIG. 13). Upon acidic hydrolysis only the nucleoside and no 5-fluorouracil were formed.

Take `CC(C)=CCC/C(C)=C/CC/C(C)=C/Cn1c(=O)c(F)cn([C@@H]2O[C@H](CO)C3OC4(CCCCCCCCCCC4)OC32)c1=O` (some centres unmarked) [Compound 31a, 2′,3′-O-Cyclododecane-1,1-diyl-5-fluoro-3-[(2E,6E)-3,7,11-trimethyldodeca-2,6,10-trien-1-yl]uridine]: the “activity against carcinoma cells” value in series [1] was “significant higher activity”.

As for `CCOC(=O)CCC1(C)OC2C(O1)[C@@H](CO)O[C@H]2n1cc(F)c(=O)[nH]c1=O` (some centres unmarked) [Compound 28a], in series [2], the half-life – broadly, how long it takes for the measured level to halve – was ~5 h.

(Values after US9902752B2, “5-fluorouracil derivatives” (B. Braun Melsungen AG, priority 2012, dated 2018).)
